According to paper PMC8834506, “Optimization of Thymidine Kinase-Based Safety Switch for Neural Cell Therapy” (Cells, 2022):
Like-named read-outs stand apart in the source and are kept apart here.

Test system: ReNcells Ubi-SR39h (proliferating)
Assay: ATP-based assay, EC50 in proliferating neural progenitors
Type: cell-based
Settings: Homo sapiens, 96 h GCV exposure
Description: We then compared the ability of GCV to kill proliferating NPC that expressed the SR39h thymidine kinase under the control of the ubiquitin (ReNcells Ubi-SR39h) or the Ki67 promoter. (ReNcells Ki67-SR39h) (Figure 4). For this purpose, we first performed a dose response to GCV on undifferentiated NPC. […] We then explored the kinetic of cell death with the suicide enzyme driven either by Ki67 or ubiquitin promoter for different concentrations of GCV. The rapidity of cell death induction but not its final extent was a function of the GCV concentrations. […] This was true for a short-term treatment at 24 h and 48 h, but not at the later time points at 72 h and 96 h (Figure 4D).
Figure 4 EC50 and kinetics of GCV-induced cell death in proliferating and post-mitotic ReNcells. […] Cell viability was measured every 24 h using a bioluminescent ATP-based assay (n = 3). […] Cell viability was measured using an ATP-based assay. […]
Cell culture plate (96 wells plate Corning #3907, Corning, Lonay, Switzerland) were pre-coated with 60 μL per well of Poly-L-ornithine solution (Sigma, Merk, Eysins, Switzerland) at 37 °C for 30 min. […] For EC50 assays, the medium was changed daily for 4 days, then cell viability was assessed using an ATP-based assay. EC50 values for each construct were calculated using a four parameters equation (GraphPad, Prism8, San Diego, CA, USA). […]

## Nc1nc(O)c2ncn(COC(CO)CO)c2n1 [GCV, ganciclovir]
24-point dose response, n = 3, read-out: EC50 of GCV, ReNcell Ki67-SR39h (second line of the picture's table)
  EC50: 2.1 nM
Undifferentiated NPC, read-out: EC50 of GCV
  EC50: ~2.1 nM
